Molecular target: T1, KRas G12C (Homo sapiens, UniProt P01116, G12C)
T1 construct: NCI-H358 cells (ATCC CRL-5807) express KRas G12C
Assay: Inhibition of KRas G12C-dependent cell growth: Phospho-ERK in NCI-H358 cells
Format: cell-based
Details: NCI-H358 cells expressing KRas G12C; Phospho-ERK (Thr202/Tyr204) normalized to GAPDH; 3 hours compound; 4 parameter fit
Method in brief: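 NCI-H358 cells (KRas G12C) exposed to compounds for 3 h, 0.5% DMSO final. Fixed cells immunostained for pERK(Thr202/Tyr204) and GAPDH with infrared secondary antibodies. pERK normalized to GAPDH, expressed as percent of DMSO control; IC50 from 4-parameter dose-response fit.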

T1 sequence (P01116 1-188 isoform P01116-2 G12C): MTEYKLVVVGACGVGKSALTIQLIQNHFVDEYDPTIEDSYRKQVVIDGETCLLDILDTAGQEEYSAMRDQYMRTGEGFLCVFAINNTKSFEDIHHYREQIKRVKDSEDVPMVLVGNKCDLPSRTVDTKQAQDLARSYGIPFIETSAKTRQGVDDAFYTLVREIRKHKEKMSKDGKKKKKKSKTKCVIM

Row | IC50 | SMILES
1 | 18 nM | C=C(F)C(=O)N1CCN(c2nc(OC[C@@H]3C[C@@H](OC)CN3C(C)C)nc3c(F)c(-c4cccc5ccc(F)c(Cl)c45)ncc23)C[C@@H]1CC#N [Example 117]
2 | 329 nM | C=C(F)C(=O)N1CCN(c2nc(OC[C@@H]3CC(F)(F)CN3C(C)C)nc3c(F)c(-c4cccc5ccc(F)c(Cl)c45)ncc23)C[C@@H]1CC#N [Example 118]
3 | 63 nM | C=C(F)C(=O)N1CCN(c2nc(OC[C@@H]3CCCN3C(C)C)nc3c(F)c(-c4cccc5ccc(F)c(Cl)c45)ncc23)C[C@@H]1CC#N [Example 121]
4 | 15 nM | C=C(F)C(=O)N1CCN(c2nc(OC[C@@H]3C[C@@H](F)CN3C)nc3c(F)c(-c4cccc5ccc(F)c(Cl)c45)ncc23)C[C@@H]1CC#N [Example 126]
5 | 243 nM | C=C(F)C(=O)N1CCN(c2nc(OCC3CN(C)C3)nc3c(F)c(-c4cccc5ccc(F)c(Cl)c45)ncc23)C[C@@H]1CC#N [Example 127]
6 | 15 nM | C=C(F)C(=O)N1CCN(c2nc(OC[C@@H]3CCCN3CC)nc3c(F)c(-c4cccc5ccc(F)c(Cl)c45)ncc23)C[C@@H]1CC#N [Example 128]
7 | 26 nM | C=C(F)C(=O)N1CCN(c2nc(OCC3CCN3C(C)C)nc3c(F)c(-c4cccc5ccc(F)c(Cl)c45)ncc23)C[C@@H]1CC#N (stereo partly shown) [Example 130]
8 | 37 nM | C=C(F)C(=O)N1CCN(c2nc(OCC3CCN3CC)nc3c(F)c(-c4cccc5ccc(F)c(Cl)c45)ncc23)C[C@@H]1CC#N (stereo partly shown) [Example 139]
9 | 14 nM | C=C(F)C(=O)N1CCN(c2nc(OC[C@@H]3CCCN3C3CCC3)nc3c(F)c(-c4cccc5ccc(F)c(Cl)c45)ncc23)C[C@@H]1CC#N [Example 140]
10 | 23 nM | C=C(F)C(=O)N1CCN(c2nc(OC[C@@H]3CCCN3C)nc3c(F)c(-c4cccc5ccc(Cl)c(Cl)c45)ncc23)C[C@@H]1CC#N [Example 147]
11 | 256 nM | C=C(F)C(=O)N1CCN(c2nc(OCC3COC3)nc3c(F)c(-c4cccc5ccc(F)c(Cl)c45)ncc23)C[C@@H]1CC#N [Example 151]
12 | 221 nM | C=C(F)C(=O)N1CCN(c2nc(OCC3(C)COC3)nc3c(F)c(-c4cccc5ccc(F)c(Cl)c45)ncc23)C[C@@H]1CC#N [Example 154]
13 | 134 nM | C=C(F)C(=O)N1CCN(c2nc(OCC3CCO3)nc3c(F)c(-c4cccc5ccc(F)c(Cl)c45)ncc23)C[C@@H]1CC#N (stereo partly shown) [Example 156]
14 | 23 nM | C=C(F)C(=O)N1CCN(c2nc(OC[C@@H]3CCCN3C)nc3c(F)c(-c4cccc5ccc(F)c(F)c45)ncc23)C[C@@H]1CC#N [Example 157]
15 | 68 nM | C=C(F)C(=O)N1CCN(c2nc(OC[C@H]3CN(C)CCO3)nc3c(F)c(-c4cccc5ccc(F)c(Cl)c45)ncc23)C[C@@H]1CC#N [Example 158]
16 | 11 nM | C=C(F)C(=O)N1CCN(c2nc(OCC3(C)CCN3C)nc3c(F)c(-c4cccc5ccc(F)c(Cl)c45)ncc23)C[C@@H]1CC#N (stereo partly shown) [Example 161]
17 | 26 nM | C=C(F)C(=O)N1CCN(c2nc(OC[C@@H]3C[C@H](F)CN3C)nc3c(F)c(-c4cccc5ccc(F)c(Cl)c45)ncc23)C[C@@H]1CC#N [Example 166]
18 | 60 nM | C=C(F)C(=O)N1CCN(c2nc(OC[C@H]3C[C@@H](F)CN3C)nc3c(F)c(-c4cccc5ccc(F)c(Cl)c45)ncc23)C[C@@H]1CC#N [Example 167]
19 | 65 nM | C=C(F)C(=O)N1CCN(c2nc(OC[C@H]3[C@H](F)CCN3C)nc3c(F)c(-c4cccc5ccc(F)c(Cl)c45)ncc23)C[C@@H]1CC#N [Example 168]
20 | 60 nM | C=C(F)C(=O)N1CCN(c2nc(OC[C@@H]3CCN(C)C3)nc3c(F)c(-c4cccc5ccc(F)c(Cl)c45)ncc23)C[C@@H]1CC#N [Example 169]
21 | 19 nM | C=C(F)C(=O)N1CCN(c2nc(N3CC(N(C)C)C3)nc3c(F)c(-c4cccc5ccc(F)c(Cl)c45)ncc23)C[C@@H]1CC#N [Example 170]
22 | 18 nM | C=C(F)C(=O)N1CCN(c2nc(OC[C@H]3CCN3CC)nc3c(F)c(-c4cccc5ccc(F)c(Cl)c45)ncc23)C[C@@H]1CC#N [Example 172]
23 | 31 nM | C=C(F)C(=O)N1CCN(c2nc(OC[C@@H]3CCN3CC)nc3c(F)c(-c4cccc5ccc(F)c(Cl)c45)ncc23)C[C@@H]1CC#N [Example 173]
24 | 20 nM | C=C(F)C(=O)N1CCN(c2nc(OCC3CCC4CCCN43)nc3c(F)c(-c4cccc5ccc(F)c(Cl)c45)ncc23)C[C@@H]1CC#N (stereo partly shown) [Example 174]
25 | 30 nM | C=C(F)C(=O)N1CCN(c2nc(OC[C@@H]3[C@@H](F)CCN3C)nc3c(F)c(-c4cccc5ccc(F)c(Cl)c45)ncc23)C[C@@H]1CC#N [Example 176]

The next lines start with the compound.

Row | SMILES | IC50
26 | C=CC(=O)N1CCN(c2nc(OC[C@@H]3CCCN3C)nc3c(F)c(-c4cccc5ccc(F)c(Cl)c45)ncc23)[C@@H](C)C1 [Example 119] | 39 nM
27 | C=C(F)C(=O)N1CCN(c2nc(OCCNS(C)(=O)=O)nc3c(F)c(-c4cccc5ccc(F)c(Cl)c45)ncc23)C[C@@H]1CC#N [Example 120] | 976 nM
28 | C=CC(=O)N1CCN(c2nc(C)nc3c(F)c(-c4cccc5ccc(F)c(Cl)c45)ncc23)C[C@@H]1CC#N [Example 122] | 32 nM
29 | C=CC(=O)N1CCN(c2ncnc3c(F)c(-c4cccc5ccc(F)c(Cl)c45)ncc23)[C@@H](C)C1 [Example 123] | 3960 nM
30 | C=C(F)C(=O)N1CCN(c2nc(OCc3ccn[nH]3)nc3c(F)c(-c4cccc5ccc(F)c(Cl)c45)ncc23)C[C@@H]1CC#N [Example 124] | 1770 nM
31 | C=C(F)C(=O)N1CCN(c2nc(OC[C@@H]3CCCN3C(C)C)nc3c(F)c(-c4cccc5cccc(Cl)c45)ncc23)C[C@@H]1CC#N [Example 125] | 42 nM
32 | C=C(F)C(=O)N1CCN(c2nc(OCCCN3C[C@@H]4C[C@H]3CO4)nc3c(F)c(-c4cccc5ccc(F)c(Cl)c45)ncc23)C[C@@H]1CC#N [Example 129] | 73 nM
33 | C=CC(=O)N1C2CCC1CN(c1ncnc3c(F)c(-c4cccc5ccc(F)c(Cl)c45)ncc13)C2 [Example 131] | 10000 nM
34 | C=C(F)C(=O)N1CCN(c2nc(OCCc3nccn3C)nc3c(F)c(-c4cccc5ccc(F)c(Cl)c45)ncc23)C[C@@H]1CC#N [Example 132] | 145 nM
35 | C=CC(=O)N1CCN(c2ncnc3c(F)c(-c4cccc5ccc(F)c(Cl)c45)ncc23)[C@H](C)C1 [Example 133] | 10000 nM
36 | C=CC(=O)N1CCN(c2ncnc3c(F)c(-c4cccc5ccc(F)c(Cl)c45)ncc23)CC1 [Example 134] | 10000 nM
37 | C=CC(=O)N1CCN(c2ncnc3c(F)c(-c4cccc5ccc(F)c(Cl)c45)ncc23)CC1C#N (stereo not shown) [Example 135] | 6050 nM
38 | C=CC(=O)N1CCN(c2nc(OC)nc3c(F)c(-c4cccc5ccc(F)c(Cl)c45)ncc23)C[C@@H]1CC#N [Example 136] | 92 nM
39 | C=CC(=O)N1CCN(c2ncnc3c(F)c(-c4cccc5cccc(Cl)c45)ncc23)CC1 [Example 137] | 3350 nM
40 | C=CC(=O)N1CCC2(C1)CN(c1ncnc3c(F)c(-c4cccc5ccc(F)c(Cl)c45)ncc13)C2 [Example 138] | 7170 nM
41 | C=CC(=O)N1CCN(c2nc(OC[C@@H]3CCCN3C)nc3c(F)c(-c4cccc5ccc(F)c(Cl)c45)ncc23)C[C@@H]1C [Example 141] | 50 nM
42 | C=C(F)C(=O)N1CCN(c2nc(OCc3cc4ncccc4[nH]3)nc3c(F)c(-c4cccc5ccc(F)c(Cl)c45)ncc23)C[C@@H]1CC#N [Example 142] | 1250 nM

Row | SMILES | IC50
43 | C=C(F)C(=O)N1CCN(c2nc(OCC34CCCN3CCOC4)nc3c(F)c(-c4cccc5ccc(F)c(Cl)c45)ncc23)C[C@@H]1CC#N (stereo partly shown) [Example 144] | 35 nM
44 | C=C(F)C(=O)N1CCN(c2nc(OCC34CCCN3C[C@H](F)C4)nc3c(F)c(-c4cccc5ccc(F)c(Cl)c45)ncc23)C[C@@H]1CC#N (stereo partly shown) [Example 145] | 2 nM
45 | C=CC(=O)N1[C@@H](C)CN(c2ncnc3c(F)c(-c4cccc5ccc(F)c(Cl)c45)ncc23)C[C@@H]1C [Example 146] | 10000 nM
46 | C=CC(=O)N1C[C@H](C)N(c2ncnc3c(F)c(-c4cccc5ccc(F)c(Cl)c45)ncc23)[C@@H](C)C1 [Example 148] | 6280 nM
47 | C=CC(=O)N1C[C@@H](C)N(c2ncnc3c(F)c(-c4cccc5ccc(F)c(Cl)c45)ncc23)[C@@H](C)C1 [Example 149] | 10000 nM
48 | C=CC(=O)N1CCN(c2ncnc3c(F)c(-c4cccc5ccc(F)c(Cl)c45)ncc23)C(CC#N)C1 (stereo not shown) [Example 150] | 10000 nM
49 | C=CC(=O)N1CCN(c2nc(OC[C@@H]3CCCN3C)nc3c(F)c(-c4cccc5ccc(F)c(Cl)c45)ncc23)C[C@H]1C [Example 152] | 322 nM
50 | C=CC(=O)N1CCN(c2nc(C)nc3c(F)c(-c4cccc5cccc(Cl)c45)ncc23)CC1 [Example 153] | 10000 nM
51 | C=CC(=O)N1CCN(c2nc(OC[C@@H]3CCCN3C)nc3c(F)c(-c4cccc5ccc(F)c(Cl)c45)ncc23)[C@H](C)C1 [Example 155] | 585 nM
52 | C=CC(=O)N1CC2(C1)CN(c1ncnc3c(F)c(-c4cccc5ccc(F)c(Cl)c45)ncc13)C2 [Example 159] | 10000 nM
53 | C=C(F)C(=O)N1CCN(c2ncnc3c(F)c(-c4cc(O)cc5ccccc45)ncc23)C[C@@H]1CC#N [Example 162] | 590 nM
54 | C=CC(=O)N1CCN(c2nc(OC[C@@H]3CCCN3C)nc3c(F)c(-c4cccc5ccc(F)c(Cl)c45)ncc23)CC1C(F)(F)F (stereo partly shown) [Example 163] | 110 nM
55 | C=CC(=O)N1CCN(c2nc(OC[C@@H]3CCCN3C)nc3c(F)c(-c4cccc5ccc(F)c(Cl)c45)ncc23)CC1CF (stereo partly shown) [Example 164] | 153 nM
56 | C=CC(=O)N1CCN(c2nc(OC[C@@H]3CCCN3C)nc3c(F)c(-c4cccc5ccc(F)c(Cl)c45)ncc23)CC1C(F)F (stereo partly shown) [Example 165] | 158 nM
57 | C=CC(=O)N1CCN(c2nc(OC[C@@H]3CCCN3C)nc3c(F)c(-c4cccc5ccc(F)c(Cl)c45)ncc23)CC1 [Example 171] | 22 nM
58 | C=CC(=O)N1CC[C@@H]2[C@H]1CN2c1ncnc2c(F)c(-c3cccc4ccc(F)c(Cl)c34)ncc12 [Example 175] | 134 nM
